Measured values reported in patent US6197963A, “Non-peptide peptidomimetics” (The Trustees of the University of Pennsylvania, priority 1998, dated 2001).
Where two headings read alike, the source gives them in different places. Values belong to the compound of their own block, whether it stands above or below them. Where a SMILES comes first, the peptide text is derived from it.

Columns and labels:
hSSTR4 = hSSTR4 (Homo sapiens, UniProt P31391); assay: Binding at human SRIF receptor subtype hSSTR4; settings: TABLE 3; read-out: hSSTR 4 Ki
NK-1 receptor [1] = molecular target: T1, NK-1 receptor (Homo sapiens, UniProt P25103); settings: cited from earlier work
[2] = system: SRIF receptors on AtT-20 cells; settings: cited from earlier work; for IC50: read-out: IC50 at somatostatin receptors of AtT-20 cells, Nicolaou and Hirschmann, ESCOM 1990; for affinity for the SRIF receptor: relative to O-linked isomers or other glycosides
β2-adrenergic receptor [3] = settings: cited from earlier work
hSSTR3 = hSSTR3 (Homo sapiens, UniProt P32745); assay: Binding at human SRIF receptor subtype hSSTR3; settings: TABLE 3; read-out: hSSTR 3 Ki
five hSSTRs = assay: Profile / average over the five human SRIF receptor subtypes; format: binding
NK-1 receptor [4] = molecular target: T1, NK-1 receptor; assay: Binding at the NK-1 receptor (Examples 109-110)
β2-adrenergic receptor [5] = assay: Binding at the β2-adrenergic receptor; settings: among some sixty-five receptors
[6] = molecular target: T2, human neurokinin-1 receptor (NK1R) (Homo sapiens, UniProt P25103); assay: Displacement of 125I-substance P from human NK1R expressed in COS cells (Example 12); format: binding; settings: for IC50: 125I-substance P, COS cells (Example 12)
T2 construct: expressed in transfected cells; host or cells: COS cells
Description: The affinity of a variety of compounds for the substance P receptor was determined employing the following procedure.
To express the cloned human neurokinin-1 receptor (NK1R) transiently in COS, the cDNA for the human NK1R was cloned into the expression vector pCDM9 which was derived from pCDM8 (Invitrogen) by inserting the ampicillin resistance gene (nucleotide 1973 to 2964 from Bluescript SK+) into the Sac II site. Transfection of 20 μg of the plasmid DNA into 10 million COS cells was achieved by electroporation in 800 μl of the transfection buffer ([…], 1.2 mM MgCl2, 2.4 mM K2 HPO4, 0.6 mM KH2PO4, […], 10 mM HEPES pH 7.4) at 260 V and 950 μF using the IBI Genezapper (IBI, New Haven, Conn.). The cells were incubated in 10% fetal calf serum, 2 mM glutamine, 100 U/ml penicillin-streptomycin, and 90% DMEM media (Gibco, Grand Island, N.Y.) in 5% CO2 at 37° C. for three days before the binding assay.
The binding assay of human NK1R expressed in COS cells is based on the use of ^125 I-substance P (^125 I-SP, from DuPont, Boston, Mass.) as a radioactively labeled ligand which competes with unlabeled substance P or any other ligand for binding to the human NK1R. Monolayer cell cultures of COS were dissociated by the non-enzymatic solution (Specialty Media, Lavallette, N.J.) and resuspended in appropriate volume of the bind buffer (50 mM Tris pH 7.5, 5 mM MnCl2, 150 mM NaCl, 0.04 mg/ml bacitracin, 0.004 mg/ml leupeptin, 0.2 mg/ml BSA, 0.01 mM phosphoramidon) such that 200 μl of the cell suspension would give rise to about 10,000 cpm of specific ^125 I-SP binding (approximately 50,000 to 200,000 cells). In the binding assay, 200 μl of cells were added to a tube containing 20 μl of 1.5 to 2.5 nM of ^125 I-SP and 20 μl of unlabeled substance P or any other test compound. The tubes were incubated at 4° C. or at room temperature for 1 hour with gentle shaking. The bound radioactivity was separated from unbound radioactivity by GF/C filter (Brandel, Gaithersburg, Md.) which was pre-wetted with 0.1 polyethylenimine. The filter was washed with 3 ml of wash buffer (50 Tris pH 7.5, 5 mM MnCl2, 150 mM NaCl) three times and its radioactivity was determined by gamma counter.
A variety of compounds were tested according to the COS cell procedure. The concentration of compound required to inhibit the binding of substance P to the human neurokinin-1 receptor by 50% was measured.

[7] = system: SRIF receptors on AtT-20 cells; assay: Binding at SRIF receptors of AtT-20 cells (Examples 104-110, Tables 1-3); set-up: species or system mouse
[8] = system: some sixty-five other receptors; assay: Binding at some sixty-five other receptors
SRIF receptor [9] = assay: Displacement of 125I-CGP-23996 from SRIF receptor on AtT-20 cells (Example 13); format: binding, mouse; settings: for IC50: displacement of 125I-CGP-23996, AtT-20 cells (Example 13), read-out: IC50
hSSTR5 = hSSTR5 (Homo sapiens, UniProt P35346); assay: Binding at human SRIF receptor subtype hSSTR5; settings: TABLE 3; read-out: hSSTR 5 Ki
hSSTR2 = hSSTR2 (Homo sapiens, UniProt P30874); assay: Binding at human SRIF receptor subtype hSSTR2; settings: TABLE 3; read-out: hSSTR 2 Ki
hSSTR1 = hSSTR1 (Homo sapiens, UniProt P30872); assay: Binding at human SRIF receptor subtype hSSTR1; settings: TABLE 3; read-out: hSSTR 1 Ki
β-Adrenergic receptor = assay: Displacement of 125I-CYP from β-adrenergic receptor, AtT-20; format: binding, mouse
SRIF receptor [10] = settings: radioligand 125I-CGP-23996; read-out: IC50 when 125I-CGP-23996 was the radioligand; cited from earlier work
[11] = system: SRIF receptors present on AtT-20 cells; settings: radioligand 125I-Tyr11-SRIF; read-out: IC50 against 125I-Tyr11-SRIF; cited from earlier work
[12] = TABLE 2 (Example 106), read-out: AtT-20 cells IC50

T2 sequence (P25103 whole entry): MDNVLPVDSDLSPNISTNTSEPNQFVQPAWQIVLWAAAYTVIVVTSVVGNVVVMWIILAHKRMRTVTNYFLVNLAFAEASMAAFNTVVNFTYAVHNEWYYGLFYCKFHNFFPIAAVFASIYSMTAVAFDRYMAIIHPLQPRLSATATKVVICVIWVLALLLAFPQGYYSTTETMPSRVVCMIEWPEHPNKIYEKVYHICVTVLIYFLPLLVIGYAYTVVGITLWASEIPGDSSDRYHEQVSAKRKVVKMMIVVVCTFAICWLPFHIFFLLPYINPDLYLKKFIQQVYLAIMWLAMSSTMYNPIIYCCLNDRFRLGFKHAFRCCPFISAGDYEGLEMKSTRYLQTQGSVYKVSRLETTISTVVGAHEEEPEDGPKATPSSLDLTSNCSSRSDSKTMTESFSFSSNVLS
T1 sequence (P25103 whole entry): as above
hSSTR4, sequence (P31391 whole entry): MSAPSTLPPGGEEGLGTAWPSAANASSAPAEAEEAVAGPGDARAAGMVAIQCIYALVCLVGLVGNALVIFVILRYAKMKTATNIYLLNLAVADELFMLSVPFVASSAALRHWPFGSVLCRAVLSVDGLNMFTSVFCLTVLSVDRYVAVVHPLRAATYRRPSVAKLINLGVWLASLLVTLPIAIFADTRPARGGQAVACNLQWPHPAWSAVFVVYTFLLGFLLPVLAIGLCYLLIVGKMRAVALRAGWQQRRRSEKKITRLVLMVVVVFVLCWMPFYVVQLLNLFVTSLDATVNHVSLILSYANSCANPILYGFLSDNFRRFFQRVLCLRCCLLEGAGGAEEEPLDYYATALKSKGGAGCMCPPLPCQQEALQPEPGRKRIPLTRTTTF
hSSTR3, sequence (P32745 whole entry): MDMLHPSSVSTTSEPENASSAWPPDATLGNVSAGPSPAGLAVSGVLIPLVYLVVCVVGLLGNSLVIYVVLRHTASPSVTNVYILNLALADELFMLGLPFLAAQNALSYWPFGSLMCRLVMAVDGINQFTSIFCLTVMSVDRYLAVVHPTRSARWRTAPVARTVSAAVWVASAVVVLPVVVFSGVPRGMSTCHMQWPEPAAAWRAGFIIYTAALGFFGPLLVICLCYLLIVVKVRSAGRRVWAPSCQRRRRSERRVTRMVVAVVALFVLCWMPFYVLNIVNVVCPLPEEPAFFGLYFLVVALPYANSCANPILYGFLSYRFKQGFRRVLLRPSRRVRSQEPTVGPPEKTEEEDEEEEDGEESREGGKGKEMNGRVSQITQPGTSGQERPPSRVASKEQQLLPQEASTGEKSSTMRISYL
hSSTR1, sequence (P30872 whole entry): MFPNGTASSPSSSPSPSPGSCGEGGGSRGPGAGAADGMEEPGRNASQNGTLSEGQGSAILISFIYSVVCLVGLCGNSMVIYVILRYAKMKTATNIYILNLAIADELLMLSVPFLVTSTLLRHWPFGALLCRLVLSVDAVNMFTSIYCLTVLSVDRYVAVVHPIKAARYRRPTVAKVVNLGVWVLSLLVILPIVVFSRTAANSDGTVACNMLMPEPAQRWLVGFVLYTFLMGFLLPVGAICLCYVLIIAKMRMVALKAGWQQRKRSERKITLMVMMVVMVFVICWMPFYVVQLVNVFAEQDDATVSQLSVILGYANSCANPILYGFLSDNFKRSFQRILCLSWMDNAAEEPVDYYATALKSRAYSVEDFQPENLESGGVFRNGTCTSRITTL
hSSTR2, sequence (P30874 whole entry): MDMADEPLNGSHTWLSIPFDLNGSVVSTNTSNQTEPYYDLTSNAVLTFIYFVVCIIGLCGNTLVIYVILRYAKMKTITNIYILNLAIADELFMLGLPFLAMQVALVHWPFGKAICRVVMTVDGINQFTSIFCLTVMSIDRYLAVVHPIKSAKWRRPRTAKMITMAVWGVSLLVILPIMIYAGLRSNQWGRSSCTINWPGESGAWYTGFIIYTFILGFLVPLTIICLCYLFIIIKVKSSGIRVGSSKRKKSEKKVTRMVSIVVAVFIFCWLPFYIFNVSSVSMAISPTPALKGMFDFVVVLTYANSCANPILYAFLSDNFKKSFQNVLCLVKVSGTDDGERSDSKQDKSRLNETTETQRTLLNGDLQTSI
hSSTR5, sequence (P35346 whole entry): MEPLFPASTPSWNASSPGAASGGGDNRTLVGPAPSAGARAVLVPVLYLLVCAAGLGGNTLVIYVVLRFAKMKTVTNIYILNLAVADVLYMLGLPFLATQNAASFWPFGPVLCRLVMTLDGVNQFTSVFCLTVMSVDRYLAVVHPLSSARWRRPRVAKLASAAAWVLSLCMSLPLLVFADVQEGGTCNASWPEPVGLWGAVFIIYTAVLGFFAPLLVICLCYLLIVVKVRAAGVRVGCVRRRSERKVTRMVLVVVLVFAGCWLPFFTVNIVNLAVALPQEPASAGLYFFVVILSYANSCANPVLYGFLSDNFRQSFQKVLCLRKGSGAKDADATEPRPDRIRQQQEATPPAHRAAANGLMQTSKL

Compound: C[C@@H](O)[C@@H]1NC(=O)[C@H](CCCCN)NC(=O)[C@@H](Cc2c[nH]c3ccccc23)NC(=O)[C@H](Cc2ccccc2)NC(=O)[C@@H]2CCCN2C(=O)[C@H](Cc2ccccc2)NC1=O [L-363,301, reference compound] (HELM PEPTIDE1{P.F.[dW].K.T.F}$PEPTIDE1,PEPTIDE1,1:R1-6:R2$$$V2.0)
IC50 (SRIF receptor [9]): 18.7 nM
binding / antagonism at the NK-1 receptor (NK-1 receptor [1]): do not bind
binding / antagonism at the β2-adrenergic receptor (β2-adrenergic receptor [3]): do not bind

Compound: CO[C@@H]1O[C@H](COCCCCCN)[C@@H](OCc2ccccc2)[C@H](OCc2ccccc2)[C@H]1OCc1ccccc1 [Methyl 6-O-(5-aminopentyl)-2,3,4-tri-O-benzyl-β-D-glucopyranoside]
binding by the SRIF receptor (SRIF receptor [9]): is bound by the substance P and SRIF receptors
IC50 (SRIF receptor [9]): 40000 nM
binding by the substance P receptor [6]: is bound by the substance P and SRIF receptors
IC50 [6]: 400 nM
binding of the β-adrenergic receptor (β-Adrenergic receptor): does not bind the β-adrenergic receptor
Inhibition (β-Adrenergic receptor; 125I-CYP (0.1 nM), AtT-20): 0%

Compound: somatostatin [SRIF, reference compound]
IC50 (SRIF receptor [9]): 9.3 nM
binding / antagonism at the NK-1 receptor (NK-1 receptor [1]): do not bind
IC50 [2]: ~9.3 nM
binding / antagonism at the β2-adrenergic receptor (β2-adrenergic receptor [3]): do not bind
hSSTR subtype affinity profile (five hSSTRs): decreases in the order SSTR2>>SSTR1>SSTR3>SSTR4 and SSTR5
IC50 (SRIF receptor [10]): 9.3 nM
IC50 [11]: 0.83 nM

Now from value to compound, other results behind:

Ki (hSSTR4): 1100 nM
Ki (hSSTR3): 2800 nM
binding of the NK-1 receptor (NK-1 receptor [4]): did not bind
IC50 (NK-1 receptor [4]; read-out: affinity at the NK-1 receptor): 150 nM
Compound: NCCCCCOC[C@H]1O[C@@H](OCCc2c[nH]c3ccccc23)[C@H](OCc2ccccc2)[C@@H](OCc2ccccc2)[C@@H]1OCc1ccccc1 [III-4a, 2-(1H-Indol-3-yl)ethyl 2,3,4-Tri-O-benzyl-6-O-(5-aminopentyl)-β-D-glucopyranoside]
binding / antagonism at the NK-1 receptor (NK-1 receptor [1]): potent antagonist ligands
IC50 [2]: ~15000 nM
binding / antagonism at the β2-adrenergic receptor (β2-adrenergic receptor [3]): bind the β2 -adrenergic receptor as antagonists
hSSTR subtype affinity profile (five hSSTRs): high affinities for hSSTR2 and hSSTR4 and a low affinity for SSTR1

binding of the β2-adrenergic receptors (β2-adrenergic receptor [5]): did not bind
IC50 [6]: 56 nM
Compound: CC(=O)NCCCCCOC[C@H]1O[C@@H](OCCc2c[nH]c3ccccc23)[C@H](OCc2ccccc2)[C@@H](OCc2ccccc2)[C@@H]1OCc1ccccc1 [III-4d]
activity / affinity at SRIF receptors of AtT-20 cells [7]: inactive
binding of the SRIF receptors ([7]; among some sixty-five receptors): did not bind
binding of some sixty-five other receptors [8]: did not bind some sixty-five other receptors

IC50 (SRIF receptor [9]): 9500 nM
IC50 [6]: 120 nM
IC50 [7, 12]: 14000 nM
Compound: OCCCCCNC[C@H]1O[C@@H](OCCc2c[nH]c3ccccc23)[C@H](OCc2ccccc2)[C@@H](OCc2ccccc2)[C@@H]1OCc1ccccc1 [III-4e, 2-(1H-Indol-3-yl)ethyl 2,3,4-Tri-O-benzyl-6-amino-6-deoxy-6-N-(5-hydroxypentyl)-β-D-glucopyranoside]
affinity for the SRIF receptor [2]: about the same as those of III-4a and III-5b

Ki (hSSTR4): 1700 nM
Ki (hSSTR5): 5100 nM
Ki (hSSTR2): 3100 nM
Ki (hSSTR1): 4100 nM
IC50 ([7]; TABLE 1 (Example 105), read-out: AtT-20 cells 50 IC): 8400 nM
IC50 ([7]; TABLE 3 (Example 108), read-out: AtT-20 IC50): 8400 nM
Ki (hSSTR3): 3300 nM
Compound: NCCCCCOC[C@H]1O[C@@H](OCCc2c[nH]c3ccccc23)[C@H](OCc2ccccc2)C[C@@H]1OCc1ccccc1 [III-5a, 2-(1H-Indol-3-yl)ethyl 2,4-Di-O-benzyl-3-deoxy-6-O-(5-aminopentyl)-β-D-glucopyranoside]
binding / antagonism at the NK-1 receptor (NK-1 receptor [1]): potent antagonist ligands
IC50 [2]: ~10000 nM
binding / antagonism at the β2-adrenergic receptor (β2-adrenergic receptor [3]): bind the β2 -adrenergic receptor as antagonists
hSSTR subtype affinity profile (five hSSTRs): high affinities for hSSTR2 and hSSTR4 and a low affinity for SSTR1

IC50 (SRIF receptor [9]): 1300 nM
IC50 [6]: 180 nM
IC50 [7, 12]: 5100 nM
Compound: OCCCCCNC[C@H]1O[C@@H](OCCc2c[nH]c3ccccc23)[C@H](OCc2ccccc2)C[C@@H]1OCc1ccccc1 [III-5c, 2-(1H-Indol-3-yl)ethyl 2,4-Di-O-benzyl-3,6-dideoxy-6-amino-6-N-(5-hydroxypentyl)-β-D-glucopyranoside]
affinity for the SRIF receptor [2]: about the same as those of III-4a and III-5b
